Values belong to the molecule of their own block, whether it stands above or below them.
Key:
[1] = Stability of quinic acid in fly food, judged by derepression activity; type: physicochemical; settings: food stored for at least a week at 18° C.
Description: (§1) Quinic acid feeding of flies: Quinic acid containing medium was made as follows: a few holes were made in standard fly medium with wooden sticks, and 0.3 ml of freshly made D-(−)-quinic acid (Sigma-Aldrich, 98%, Catalog #138622) solution dissolved in water was added per 10 ml of medium. Vials were allowed to air-dry overnight. […] For assaying the effect of quinic acid on developing animals, approximately 10 males and 15 females per vial of the genotype ET40-QF, QUAS-mtdT-3xHA (II); 82B^FRT tubP-QS (III) were allowed to lay eggs for 6 hours on quinic acid containing medium. Animals fed upon and developed in the quinic acid containing food. Adult flies were imaged within 3 days of eclosion. For assaying the effect of quinic acid feeding on adult flies, approximately 30 adult flies per vial of genotype ET40-QF, QUAS-mtdT-3xHA (II); 82B^FRT tubP-QS (III) were allowed to feed on quinic acid medium for the listed times in FIG. 3D. For feedings over multiple days, flies were transferred to fresh quinic acid containing food every two days.

[2] = test system: Flies; test: Flies kept on food containing high doses of quinic acid; type: in vivo, Drosophila; settings: 9 generations on food containing high doses of quinic acid
Description: as §1

[3] = test system: QUAS-luc2 reporter (QF activation, QS repression) in human HeLa cells; test: Dual luciferase reporter assay in transiently transfected human HeLa cells, QUAS-luc2 reporter (QF/QS); type: cell-based
Description: (§2) HeLa Cell Transfection: HeLa cells (gift of K. Wehner, Stanford University) were maintained in Dulbecco's Modified Eagle Medium (DMEM, Invitrogen, Catalog #10566), supplemented with 10% FBS and antibiotics (from 100× penicillin/streptomycin stock, Invitrogen, Catalog #15140) in a 37° C. air incubator with 5% CO2. At least 5 hours before transfection, cells were detached and dissociated from the plate using Triple-express (Invitrogen, Catalog #12605) and plated into 24-well plates at 7*10^4 cells in 0.5 ml medium with FBS, but without antibiotics. Cells were transiently transfected using Lipofectamine 2000 (Invitrogen, Catalog #11668-019), according to the manufacturer's instructions. Plasmid DNA for transfection was prepared as described in the S2 cell transfection protocol above. For each sample we used 0.25 μg DNA (total of 10 μl from 25 ng/μl stocks) including one or more of the following: 50 ng of reporter, 25 ng of a transcription factor plasmid and the amount or repressor plasmid that was adjusted according to the molarity of the corresponding transcription factor plasmid to get either equimolar, 3-fold or 5-fold higher molar concentration, as indicated.
Each sample also contained 5 ng of pGL4.75 (hRluc/CMV from Promega), which was used for normalization of the firefly luciferase signal for each sample (see below), and pBluescript to supplement the total DNA amount to 0.25 μg. The DNA was mixed in 50 μl of Opti-MEM (Invitrogen, Catalog #51985) and combined with another 50 μl of Opti-MEM containing 1 μl of Lipofectamine. The medium containing the transfection mix was replaced with DMEM containing FBS and antibiotics 22 h after transfection. Where needed, the medium contained quinic acid supplemented from 50× stocks that were made as described in the S2 cell transfection protocol above. 24 h after the medium was changed, the cells were lysed in 24-well plates and processed as described above in the S2 cell transfection protocol. All samples that were transfected with reporters had at least 100-fold higher signal than the background (lysates from pBluescript-only transfected cells). […] Plasmids used for transfection in HeLa cells were: pUAS-luc2, pQUAS-luc2, pCMV-QF, pCMV-QS, pCMV-GAL4, pCMV-GAL80, pGL4.75 (Promega), pBluescript. Higher QS:QF or GAL80:GAL4 molar ratios are required for effective suppression in HeLa cells compared with Drosophila S2 cells. This phenomenon could be due to codon choice and/or differential activity or stability of activators and repressors at different temperatures—25° C. for S2 and 37° C. for HeLa.

[4] = test system: QUAS-luc2 reporter (QF activation, QS repression) in Drosophila S2 cells; test: Dual luciferase reporter assay in transiently transfected Drosophila S2 cells, QUAS-luc2 reporter (QF/QS); type: cell-based
Description: (§3) S2 Cell Transfection: S2 cells (gift of M. Simon, Stanford University) were maintained in Shields and Sang M3 insect medium (Sigma, Catalog #S8398), prepared according to the manufacturer's instructions and supplemented with 10% heat inactivated fetal bovine serum (FBS) and antibiotics (from 100× penicillin/streptomycin stock, Invitrogen, Catalog #15140). FBS was heat inactivated at 56° C. for 30 minutes. The cells were grown in an air incubator at 25° C. For transfection, 0.4 ml of complete M3 medium containing 5*10^5 Drosophila S2 cells were plated into individual wells of 24-well plates several hours before the transfection. The DNA for transfection was mini-prepped (QIAprep Miniprep kit, Qiagen, Catalog #27106), DNA concentrations were determined using the Nanoprop 1000 spectrophotometer (Thermo Scientific), diluted in 10 mM TRIS-HCl pH 7.5, 0.1 mM EDTA to 25 ng/μl, and filtered through a 13-mm 0.2 μm filter (Nalgene, Catalog #180-1320). For individual transfections, we used 0.2 μg of total DNA (total of 8 μl from 25 ng/μl stocks) including one or more of the following: 25 ng of reporter, 12.5 ng of a transcription factor plasmid and the amount or repressor plasmid that was adjusted according to the molarity of the corresponding transcription factor plasmid to get either equimolar, 3-fold or 5-fold higher molar concentration, as indicated. Each sample also contained 2.5 ng of pPAC5C-hRluc, which was used for normalization of the firefly luciferase signal for each sample (see below) and pBluescript to supplement the total DNA amount to 0.2 μg. The cells were transfected using Effectene (Qiagen, Catalog #301425) according to the manufacturer's protocol (for each sample we used: 59 μl EC buffer; 1.6 μl enhancer solution; 4 μl Effectene and 350 μl M3 medium). 12 h after the addition of transfection mixes to cells, quinic acid was added where indicated from 50× stocks. The starting quinic acid stock solution (250 mg/ml) was prepared from D-(−)-quinic acid (Sigma-Aldrich, 98%, Catalog #138622) in sterile Milli-Q water and neutralized with NaOH to pH˜7. All other 50× stocks were made from this stock by dilution in water. Cells were lysed 24 h after the addition of quinic acid (36 h since the start of transfection), by spinning the 24-well plates for 5′ in a table top centrifuge at ˜1000 g, removing the supernatant by aspiration and incubation with of 200 μl passive lysis buffer (from the Dual Luciferase Reporter Assay System by Promega, Catalog #E1910) with shaking at room temperature for ˜30 minutes. The lysates were transferred into 1.5 ml tubes and frozen at −80° C. The lysates were analyzed using the Dual Luciferase Reporter Assay System, according to the manufacturer's instructions, and the single tube Turner Biosystems luminometer, model 20/20n. The luminescence light signal for both firefly and Renilla luciferases was collected for 10 s. All samples that were transfected with reporters had at least 100-fold higher signal than the background (lysates from pBluescript-only transfected cells). For each sample “X”, the relative luciferase activity (RLA) was calculated according to the following formula: […] where n=number of QUAS-only samples; F=Firefly luciferase luminescence signal; R=Renilla luciferase luminescence signal. Each condition was executed at least in triplicate, the average and SEM were determined for each condition, and statistical significance was evaluated using Student's t-test. […]

[5] = test system: QS inhibition of ET40-QF driven QUAS-mtdT-HA expression; test: Quinic acid feeding of flies: derepression of QS (fluorescence imaging of adult flies); type: in vivo, Drosophila
Description: as §1
Imaging of adult flies: Adult flies were imaged on a Qlmaging Retiga 2000R Cooled Monochrome Digital camera using a Discovery V8 Pentafluor System (Zeiss) with a DS RED filter cube.

[6] = test system: UAS-luc2 reporter (GAL4 activation, GAL80 repression) in Drosophila S2 cells; test: Dual luciferase reporter assay in transiently transfected Drosophila S2 cells, UAS-luc2 reporter (GAL4/GAL80); type: cell-based
Description: as §3

[7] = test system: UAS-luc2 reporter (GAL4 activation) in human HeLa cells; test: Dual luciferase reporter assay in transiently transfected human HeLa cells, UAS-luc2 reporter (GAL4); type: cell-based
Description: as §2
Each sample also contained 5 ng of pGL4.75 (hRluc/CMV from Promega), which was used for normalization of the firefly luciferase signal for each sample (see below), and pBluescript to supplement the total DNA amount to 0.25 μg. […]

[8] = adult flies transferred to quinic acid-containing food

stability in food [1]: appears to be stable
abnormalities in flies [2]: no noticeable abnormalities
Molecule: O=C(O)[C@]1(O)C[C@@H](O)[C@@H](O)[C@H](O)C1 [quinic acid, D-(−)-quinic acid]
effect on QF-dependent transcription of QUAS [3]: no effect
suppression of QS in mammalian cells ([3]; also observed in COS cells): does not suppress QS
further suppression of QUAS activation in the presence of QF and 5xQS ([3]; two higher QA concentrations tested (250 μg/ml, 5 mg/ml)): ~13 fold
suppression of QS to restore QF-based transcription [4]: significantly suppressed QS
effect on QF activation of QUAS ([4]; high concentration (5 mg/ml)): no effect
re-activation of QUAS compared to the control sample with QUAS, QF and 5xQS ([4]; highest QA concentration tested (QA3=5 mg/ml), 24 h): ~23 fold
derepression in flies fed for up to 10 days compared with 5 days ([5]; adult flies on quinic acid food): no more derepression
time after which reversion of suppression could be seen [5, 8]: 6 h
time of marked reversion of suppression [5, 8]: 24 h
time of saturation of reversion of suppression [5, 8]: ≤ 5 days
reversion of QS inhibition of ET40-QF driven QUAS-mtdT-HA expression with increasing doses ([5]; quinic acid added to fly food on which flies developed): increasingly reverted
derepression of GAL4 (effect on GAL80 repression of GAL4) ([6]; high concentration (5 mg/ml)): ~1.5 fold
effect on Gal4 activation of UAS ([6]; high concentration (5 mg/ml)): no effect

B1: QF: transcriptional activator from the Neurospora crassa qa gene cluster, binds 16-base pair sequence (QUAS) (protein, UniProt P11638 1-816, looked up)
Transcription factor qa-1f: MPPKRKTLNAAAEANAHADGHADGNADGHVANTAASSNNARFADLTNIDTPGLGPTTTTLLVEPARSKRQRVSRACDQCRAAREKCDGIQPACFPCVSQGRSCTYQASPKKRGVQTGYIRTLELALAWMFENVARSEDALHNLLVRDAGQGSALLVGKDSPAAERLHARWATSRVNKSITRLLSGQAAQDPSEDGQSPSEDINVQDAGAKTSDFPHAPHLTFSAPKSSTAETRTLPGPVRPPISANTLENNLQPDGTGIGKLPPNHWRLLDIYFSYTHSWLPILEKKDMYQALYQYSEQGSLLPSANVESGVHAELWSALALASFQAAATAASSATGPASAAHGHDNAINPSPADISDTARKLIPLESGPFQVQHCRALLLLCLVSLGRDDWESAWLLVGFAVRVLLVVRTQLPPDDDRPRPRMRALLVACFIVDTIVSMRHNVPAHLKPDDIADLPLPEDGQDQWEPWTPCEGLGGEHTMLQMLRNPAYPLSTFNHLYGVTKLVALELLPRIRTSSQNAPLEFRSRLQQVIGHNSPFSVFVLSQDTASAFVPTAYLTRTVYLWAAAFSEPLNEHYSHLLIETLDQYQKRFGTYAIPPLIPSLLDSLLALKKQSHSSERHRRHLEELFPAYSSIWPRGGRHSNTGLQPIRQLELPPTATATASIMPHVMEQPLSTSINPVNDRFNGIPNPTPYNSDAALDAITQTNDYGSVNTHGILSTYPPPATHLNEASVALAPGGAPPRPPPPYVDSTTNHPPYHSNLVPMANFGYSTVDYDAMVDDLASIEYTDAVDVDPQFMTNLGFVPGCNFSDISTYEQ
induction of expression from QUAS [3]: ~24.000 fold
enhancement of luc2 expression from QUAS-luc2 compared with QUAS-luc2 alone [4]: ~3.300 fold
QF activation of UAS, fold less than that of QUAS ([6]; cross-activation): ~1,500 fold

B2: GAL4: budding yeast transcription factor of the GAL4/UAS binary expression system (protein, UniProt P04386 1-881, looked up)
Regulatory protein GAL4: MKLLSSIEQACDICRLKKLKCSKEKPKCAKCLKNNWECRYSPKTKRSPLTRAHLTEVESRLERLEQLFLLIFPREDLDMILKMDSLQDIKALLTGLFVQDNVNKDAVTDRLASVETDMPLTLRQHRISATSSSEESSNKGQRQLTVSIDSAAHHDNSTIPLDFMPRDALHGFDWSEEDDMSDGLPFLKTDPNNNGFFGDGSLLCILRSIGFKPENYTNSNVNRLPTMITDRYTLASRSTTSRLLQSYLNNFHPYCPIVHSPTLMMLYNNQIEIASKDQWQILFNCILAIGAWCIEGESTDIDVFYYQNAKSHLTSKVFESGSIILVTALHLLSRYTQWRQKTNTSYNFHSFSIRMAISLGLNRDLPSSFSDSSILEQRRRIWWSVYSWEIQLSLLYGRSIQLSQNTISFPSSVDDVQRTTTGPTIYHGIIETARLLQVFTKIYELDKTVTAEKSPICAKKCLMICNEIEEVSRQAPKFLQMDISTTALTNLLKEHPWLSFTRFELKWKQLSLIIYVLRDFFTNFTQKKSQLEQDQNDHQSYEVKRCSIMLSDAAQRTVMSVSSYMDNHNVTPYFAWNCSYYLFNAVLVPIKTLLSNSKSNAENNETAQLLQQINTVLMLLKKLATFKIQTCEKYIQVLEEVCAPFLLSQCAIPLPHISYNNSNGSAIKNIVGSATIAQYPTLPEENVNNISVKYVSPGSVGPSPVPLKSGASFSDLVKLLSNRPPSRNSPVTIPRSTPSHRSVTPFLGQQQQLQSLVPLTPSALFGGANFNQSGNIADSSLSFTFTNSSNGPNLITTQTNSQALSQPIASSNVHDNFMNNEITASKIDDGNNSKPLSPGWTDQTAYNAFGITTGMFNTTTMDDVYNYLFDDEDTPPNPKKE
induction of UAS [7]: ~1000 fold
GAL4 activation of QUAS, fold less than that of UAS ([4]; cross-activation): ~200 fold
higher inducibility than QF/QUAS [6]: ~1.6 fold
induction of luc2 expression from UAS-luc2 [6]: ~5,300 fold

Source: patent US20110277050A1, “SYSTEM AND METHODS TO CONTROL TRANSGENE EXPRESSION” (The Board of Trustees of the Leland Stanford Junior …, priority 2010, published 2011)
